Laboratory results taken from patent EP4714468A1, “METHOD FOR ADMINISTERING MODULATOR TARGETING S1PR1 AND S1PR4” (priority 2023, dated 2024).
Read-outs that look alike come from different tables or passages of the source.

Assays:
[1] = tested on: alopecia areata lesion area; assay: C3H/HeJ alopecia areata mouse model; assay type: in vivo, C3H/HeJ mice; conditions: 3 mg/kg or 10 mg/kg oral twice a day, 12 weeks
Method: The efficacy of NXC736 on alopecia areata was evaluated by using the alopecia areata mouse model C3H/HeJ (Jackson Lab, Saeron Bio).
C3H/HeJ mice, 10 to 16 weeks of age, in which alopecia areata was not induced, were divided into two groups: a control group (sterile distilled water administration group) and an NXC736 administration experimental group, and 5 mice per group were randomly assigned. After the lymph node cells were proliferated and injected into the C3H/HeJ mice, the NXC736 administration experimental group was orally administered with 3 mg/kg or 10 mg/kg of NXC736, and the control group was orally administered with the same volume of sterile distilled water twice a day at the same time for 12 weeks. The alopecia areata lesion area and disease free ratio were measured at two-week intervals. The animal breeding room was maintained at a temperature of 23±3°C, a relative humidity of 50±10%, and a 12-hour light and dark cycle, and the experimental animals were bred in isolation boxes (ThreeShine) and were given experimental animal feed and water ad libitum.
After 12 weeks, the circular alopecia lesion area was photographed and quantified by using the Image J program (Version 1.44p).

[2] = tested on: absolute lymphocyte count (ALC); assay: Phase 1 clinical trial, repeated administration: pharmacodynamics by hematological test; assay type: in vivo, healthy adult males
Method: (§1) A randomized, double-blind, placebo-controlled, step-escalation, single- and multiple-dose phase 1 clinical trial was conducted to evaluate the safety, tolerability, and pharmacokinetic/pharmacodynamic characteristics of a compound of Chemical Formula 1 (NXC736) after oral administration to healthy adult males.
(§2) The subjects fasted for at least 10 hours before the first administration. Afterwards, the clinical trial drug was administered orally twice a day for 13 days and once on day 14 in a fasting state at around 9:00 AM and 9:00 PM. The administration was performed twice a day for approximately 14 days, and the subjects were discharged on day 21 from the first administration and observed through outpatient visits until day 36. Blood was collected once before administration and at regular intervals after administration, and hematological tests were performed.

[3] = tested on: Sphingosine-1 Phosphate (S1P) receptor; conditions: background art statement; cited from earlier work
[4] = tested on: lymphocyte-mediated diseases; conditions: alopecia areata, inflammatory bowel disease, interstitial fibrosis and tubular atrophy, focal segmental glomerulosclerosis; Korean patents; cited from earlier work
[5] = Phase 1 clinical trial, single administration: pharmacokinetics; assay type: in vivo, healthy adult males
Method: as §1
(§3) The subjects were administered a single oral dose of the clinical trial drug on an empty stomach at around 9:00 AM on the day of administration after fasting for at least 10 hours. In the single-administration trial, the subjects were administered the drug and hospitalized for 8 days. After discharge, they were observed through outpatient visits until day 21. Blood was collected once before administration and at regular intervals after administration, and hematological tests were performed.

[6] = tested on: absolute lymphocyte count (ALC); assay: Phase 1 clinical trial, single administration: pharmacodynamics by hematological test; assay type: in vivo, healthy adult males
Method: as §1, §3

[7] = in vivo
[8] = Phase 1 clinical trial, repeated administration: pharmacokinetics; assay type: in vivo, healthy adult males
Method: as §1, §2

[9] = tested on: lymphocytes in the peripheral blood stream; assay: Absolute lymphocyte count suppression in healthy rats; assay type: in vivo, SD rats
[10] = Phase 1 clinical trial, single ascending dose (SAD): safety and tolerability; set-up: species or system healthy adult males; conditions: in vivo
Method: as §1
The clinical trial drug product is a white, round, film-coated tablet (1 mg, 3 mg tablet) or a yellow, round, film-coated tablet (10, 20 mg, 40 mg, 60 mg, 80 mg tablet) containing the active ingredient (main ingredient) NXC736 and excipients such as diluents, binders, disintegrants, fluidizing agents and glidants. The NXC736 clinical trial drug product was manufactured as an 84 mg film-coated tablet containing 1 mg or 3 mg of the main ingredient, or a 334 mg film-coated tablet containing 10 mg, 20 mg, 40 mg, 60 mg or 80 mg of the main ingredient, and it can be stored at room temperature (1 to 30°C) in an airtight container.
In this clinical trial, a total of 42 subjects were randomly assigned to a single-administration, and a total of 39 subjects completed the study according to the clinical trial protocol. A total of 33 subjects were assigned to a repeated-administration trial, and a total of 32 subjects completed the study according to the clinical trial protocol.
as §3

T lymphocytes = conditions: through the suppression of T lymphocytes; cited from earlier work

CCCCCCCCCCn1cc(CCC(N)(CO)CO)nn1 [NXC736]
circular alopecia lesion area compared to control group [1]: effectively reduced | dose dependence of therapeutic effect on alopecia lesion area [1]: concentration-dependent therapeutic effect was observed | change in ALC ([2]; 20 mg twice daily, 14-day repeated administration): ≤ 30% | ALC reduction effect ([2]; 40 mg to 80 mg, repeated administrations twice a day): ≥ 50% | absolute lymphocyte count decrease ([2]; 60 mg twice-daily administration group or higher, 14 days): up to 70% | absolute lymphocyte count after administration compared to before administration ([2]; repeated administrations 40 mg): about 43% | absolute lymphocyte count after administration compared to before administration ([2]; repeated administrations 60 mg): about 32% | absolute lymphocyte count after administration compared to before administration ([2]; repeated administrations 80 mg): about 36% | binding selectivity among S1P receptor subtypes [3]: selectively binds to S1P1 and S1P4 | treatment of lymphocyte-mediated diseases in animal experiments [4]: effectively treat | elimination in urine [5]: hardly eliminated in urine | half-life ([5]; human, in vivo, po, read-out: average elimination half-life (converted)): ~10 h | Tmax ([5]; human, plasma, po, read-out: time to reach peak plasma concentrations): ~1 h | change in ALC ([6]; single administration 1 mg): 16% | change in ALC ([6]; single administration 3 mg): 27% | change in ALC ([6]; single administration 10 mg): 27% | change in ALC ([6]; single administration 20 mg): 25% | absolute lymphocyte count after administration compared to before administration ([6]; single administration 40 mg): about 68% | absolute lymphocyte count after administration compared to before administration ([6]; single administration 80 mg): about 54% | serious adverse reactions [7]: No serious adverse reactions were observed | accumulation at steady state compared to the first administration ([8]; repeated administration): approximately twice | dose proportionality of Cmax,ss and AUCtau,ss ([8]; repeated administrations): confirmed | lymphocytes suppressed by ([9]; 5 mg/kg oral twice a day, 4 hours after the first administration): up to 78% | lymphocytes suppressed by ([9]; 5 mg/kg oral twice a day, 4 hours after the second administration (16 hours after the first)): approximately 90% | lymphocytes recovered to ([9]; 5 mg/kg oral twice a day, 24 hours): approximately 50% | lymphocytes suppressed by ([9]; 10 mg/kg oral twice a day, 4 hours after the first administration): up to 83% | lymphocytes suppressed by ([9]; 10 mg/kg oral twice a day, 4 hours after the second administration (16 hours after the first)): up to 94% | lymphocyte suppression effect maintained ([9]; 10 mg/kg oral twice a day, up to 24 hours): about 80% | lymphocyte suppression effect maintained ([9]; 10 mg/kg oral twice a day, up to 36 hours): about 70% | lymphocytes suppressed by ([9]; 20 mg/kg oral once a day, 12 hours): up to 92% | lymphocytes recovered to ([9]; 20 mg/kg oral once a day, 24 hours): 60% | lymphocytes recovered to ([9]; 20 mg/kg oral once a day, 48 hours): 100% | lymphocyte suppression effect, twice a day vs once a day ([9]; 5 or 10 mg/kg BID vs 20 mg/kg QD): superior when administered twice a day even at a lower dose compared to when administered once a day | adverse reactions (ADR) assessed as having a causal relationship with the investigational drug [10]: 12 | adverse reactions (number of events) [10]: 23 | decrease in heart rate after administration [10]: observed in most subjects administered NXC736 | difference in frequency of adverse reactions between dose groups [10]: no significant difference in the frequency of adverse reactions between the dose groups | serious adverse reactions [10]: No serious adverse reactions were observed | severity and outcome of adverse reactions [10]: Most adverse reactions were mild and all recovered during the trial period | subjects with adverse reactions [10]: 9

C=CC(=O)N1C[C@H](Nc2ncnc3[nH]ccc23)CC[C@@H]1C [Ritlecitinib]
therapeutic effect on alopecia areata (T lymphocytes): show a therapeutic effect on alopecia areata
